Reference: article PMC8154156 (ACS Omega, 2021)

Key:
[1] = biological target: T1, T5 exonuclease (T5E) (Escherichia phage T5, UniProt P06229); assay: agarose gel, degradation of; assay type: biochemical; conditions: high nucleotide concentrations
T1 sequence (P06229 2-291): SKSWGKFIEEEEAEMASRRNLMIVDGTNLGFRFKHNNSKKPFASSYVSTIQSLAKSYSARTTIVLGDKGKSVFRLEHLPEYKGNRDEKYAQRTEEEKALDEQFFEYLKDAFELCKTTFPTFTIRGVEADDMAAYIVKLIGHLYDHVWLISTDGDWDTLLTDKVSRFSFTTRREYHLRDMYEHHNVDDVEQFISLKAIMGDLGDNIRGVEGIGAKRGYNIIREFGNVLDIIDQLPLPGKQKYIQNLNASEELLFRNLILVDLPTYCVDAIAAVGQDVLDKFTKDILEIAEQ

[2] = biological target: T2, E. coli DNA topoisomerase I (EcTopI) (Escherichia coli, UniProt P06612); assay: agarose gel DNA relaxation assay; assay type: biochemical
T2 sequence (P06612 1-865): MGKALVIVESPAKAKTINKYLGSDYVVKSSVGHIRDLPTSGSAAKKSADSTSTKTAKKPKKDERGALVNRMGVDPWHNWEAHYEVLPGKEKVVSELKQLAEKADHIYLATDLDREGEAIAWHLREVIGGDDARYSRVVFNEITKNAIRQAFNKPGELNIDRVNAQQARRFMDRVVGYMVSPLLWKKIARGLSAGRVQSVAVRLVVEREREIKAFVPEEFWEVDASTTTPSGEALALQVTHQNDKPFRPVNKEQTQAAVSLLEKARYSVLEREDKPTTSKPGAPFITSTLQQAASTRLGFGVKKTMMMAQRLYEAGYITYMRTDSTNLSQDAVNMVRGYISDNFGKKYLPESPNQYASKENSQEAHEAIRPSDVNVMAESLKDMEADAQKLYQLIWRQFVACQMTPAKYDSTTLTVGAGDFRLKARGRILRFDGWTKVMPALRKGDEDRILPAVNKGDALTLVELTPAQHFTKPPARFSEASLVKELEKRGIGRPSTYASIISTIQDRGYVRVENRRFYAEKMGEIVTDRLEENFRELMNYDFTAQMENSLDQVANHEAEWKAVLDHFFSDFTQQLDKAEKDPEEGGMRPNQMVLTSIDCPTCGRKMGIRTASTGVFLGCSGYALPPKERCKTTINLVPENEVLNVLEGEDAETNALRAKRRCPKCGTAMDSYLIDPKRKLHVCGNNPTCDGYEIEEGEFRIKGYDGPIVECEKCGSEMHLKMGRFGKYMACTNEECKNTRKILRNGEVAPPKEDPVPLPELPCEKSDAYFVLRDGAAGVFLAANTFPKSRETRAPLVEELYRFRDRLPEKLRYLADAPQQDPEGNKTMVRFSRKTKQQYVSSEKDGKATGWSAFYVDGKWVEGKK

[3] = biological target: T1, T5 exonuclease (T5E); assay: flap endonuclease activity assay; assay type: biochemical
[4] = biological target: variola DNA topoisomerase I (vTopI) (Variola virus human/India/Ind3/1967, UniProt P32989)
Chain of variola DNA topoisomerase I (vTopI) (P32989 whole entry, looked up): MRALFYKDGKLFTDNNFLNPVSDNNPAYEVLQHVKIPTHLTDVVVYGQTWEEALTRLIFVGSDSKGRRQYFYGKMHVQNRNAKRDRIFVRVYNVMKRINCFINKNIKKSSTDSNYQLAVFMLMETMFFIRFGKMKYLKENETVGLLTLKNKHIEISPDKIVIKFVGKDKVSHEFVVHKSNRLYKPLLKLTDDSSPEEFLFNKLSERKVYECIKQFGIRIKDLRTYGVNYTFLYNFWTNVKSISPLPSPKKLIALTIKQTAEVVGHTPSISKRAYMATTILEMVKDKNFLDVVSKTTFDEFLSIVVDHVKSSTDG

Compound: Nc1ncnc2c1ncn2[C@@H]1O[C@H](COP(=O)(O)OP(=O)(O)OP(=O)(O)O)[C@@H](O)[C@H]1O [ATP]
- agarose gel, degradation of (-) sc pAB1 [1]: high concentrations of ATP, GTP, CTP, and UTP inhibited the degradation of (−) sc pAB1

Compound: Nc1ccn([C@@H]2O[C@H](COP(=O)(O)OP(=O)(O)OP(=O)(O)O)[C@@H](O)[C@H]2O)c(=O)n1 [CTP]
- agarose gel, degradation of (-) sc pAB1 [1]: high concentrations of ATP, GTP, CTP, and UTP inhibited the degradation of (−) sc pAB1

Compound: Nc1nc2c(ncn2[C@@H]2O[C@H](COP(=O)(O)OP(=O)(O)OP(=O)(O)O)[C@@H](O)[C@H]2O)c(=O)[nH]1 [GTP]
- agarose gel, degradation of (-) sc pAB1 [1]: high concentrations of ATP, GTP, CTP, and UTP inhibited the degradation of (−) sc pAB1

Compound: O=C1C=C(NCCc2cc(Br)c(O)c(Br)c2)C(=O)c2ncccc21 [NSC668394]
- IC50 [2]: 8 ± 0.2 µM

Compound: O=c1ccn([C@@H]2O[C@H](COP(=O)(O)OP(=O)(O)OP(=O)(O)O)[C@@H](O)[C@H]2O)c(=O)[nH]1 [UTP]
- agarose gel, degradation of (-) sc pAB1 [1]: high concentrations of ATP, GTP, CTP, and UTP inhibited the degradation of (−) sc pAB1

Compound: Cc1ccc(C(=O)Nc2ccc(S(=O)(=O)O)c3cc(S(=O)(=O)O)cc(S(=O)(=O)O)c23)cc1NC(=O)c1cccc(NC(=O)Nc2cccc(C(=O)Nc3cc(C(=O)Nc4ccc(S(=O)(=O)O)c5cc(S(=O)(=O)O)cc(S(=O)(=O)O)c45)ccc3C)c2)c1 [suramin]
- IC50 [3]: 22.6 µM
- T5 exonuclease-based fluorescence HTS at 20 μM [4]: The only positive hit is the polynegatively charged suramin (Figure S6b)
